# Results taken from ChEMBL document CHEMBL1138891, “3-(4-Piperidinyl)indoles and 3-(4-piperidinyl)pyrrolo-[2,3-b]pyridines as ligands for the ORL-1 receptor” (Bioorg Med Chem Lett, 2006).
# Columns and labels:
# [1] = Stability in human liver microsome after 60 mins; type: ADME; conditions: liver microsomes, read-out: Stability
# [2] = Half life in human liver microsomes; type: ADME, Microsome
smiles,measurement,setting,value
c1cc2c3c(cccc3c1)C(N1CCC(c3c[nH]c4ncccc34)CC1)C2 (configuration not stated),remaining at 1 h,[1],14%
same,half-life,[2],15 min
